Experimental findings from patent US10710978B2, “STK4 inhibitors for treatment of hematologic malignancies” (Dana-Farber Cancer Institute, Inc., priority 2015, dated 2020) are described below.

In the assay the target is STK4 (MST1) (Homo sapiens (Human), UniProt Q13043). Nature of the assay: Z-lyte biochemical IC50 assay (Invitrogen). The following applies: ATP concentration matched the Km. As to the method: STK4 (MST1), STK3 (MST2); STK24 (MST3) and MST4 Assays
Chain of STK4 (MST1) (Q13043 whole entry): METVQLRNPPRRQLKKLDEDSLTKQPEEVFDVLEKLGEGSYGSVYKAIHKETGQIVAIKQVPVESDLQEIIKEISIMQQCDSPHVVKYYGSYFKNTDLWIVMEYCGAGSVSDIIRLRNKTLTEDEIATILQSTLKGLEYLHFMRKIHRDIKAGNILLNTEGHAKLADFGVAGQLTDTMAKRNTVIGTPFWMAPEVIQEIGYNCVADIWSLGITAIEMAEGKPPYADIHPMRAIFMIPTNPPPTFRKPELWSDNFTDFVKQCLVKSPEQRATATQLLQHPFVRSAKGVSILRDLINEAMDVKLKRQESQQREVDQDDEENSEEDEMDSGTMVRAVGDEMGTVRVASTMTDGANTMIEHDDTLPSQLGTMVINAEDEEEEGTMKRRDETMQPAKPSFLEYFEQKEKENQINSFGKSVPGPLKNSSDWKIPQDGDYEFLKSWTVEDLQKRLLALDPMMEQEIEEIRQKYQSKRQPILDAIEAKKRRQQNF
Biochemical IC50s were measured at Invitrogen using Z-lyte technology. Briefly, for STK4, the 2×STK4 (MST1)/Ser/Thr 07 mixture was prepared in 50 mM HEPES pH 7.5, 0.01% BRIJ35, 10 mM MgCl2, 1 mM EGTA. The final 10 μL Kinase Reaction consisted of 6.25-160 ng STK4 (MST1) and 2 μM Ser/Thr 07 in 50 mM HEPES pH 7.5, 0.01% BRIJ-35, 10 mM MgCl2, 1 mM EGTA. After the 1 hour Kinase Reaction incubation, 5 μL of a 1:100000 dilution of Development Reagent A was added. Compounds were screened in a 10 point titration with 3-fold serial dilutions starting at a concentration of 10 μM. The biochemical IC50s against other STK family members were measured similarly. The ATP concentration used matched the Km for each kinase.
`COc1cc(S(=O)(=O)N(C)C2CCOCC2)ccc1-c1cnc(N)c(-c2ccc3c(c2)CCNC3=O)c1` [Compound I-53, 4-(6-amino-5-(1-oxo-1,2,3,4-tetrahydroisoquinolin-6-yl)pyridin-3-yl)-3-methoxy-N-methyl-N-(tetrahydro-2H-pyran-4-yl)benzenesulfonamide] yielded an IC50 of 0.04 to 0.2 µM.

In turn, `Nc1ncc(-c2cc(F)cc([N+](=O)[O-])c2)cc1-c1ccc2c(c1)CCNC2=O` [Compound I-17, 6-(2-amino-5-(3-fluoro-5-nitrophenyl)pyridin-3-yl)-3,4-dihydroisoquinolin-1(2H)-one] displayed an IC50 of 0.04 to 0.2 µM.

Turning to `Nc1ncc(-c2cc([N+](=O)[O-])cnc2F)cc1-c1ccc2c(c1)CCNC2=O` [Compound I-39, 6-(6-amino-2′-fluoro-5′-nitro-[3,3′-bipyridin]-5-yl)-3,4-dihydroisoquinolin-1(2H)-one], the IC50 lay within 0.2 to 0.9 µM.

`Cn1cnc2c(-c3cnc(N)c(-c4ccc5c(c4)CCNC5=O)c3)cccc21` [Compound I-14, 6-(2-amino-5-(1-methyl-1H-benzo[d]imidazol-4-yl)pyridin-3-yl)-3,4-dihydroisoquinolin-1(2H)-one]: the IC50 was 0.04 to 0.2 µM.

`CC(C)Oc1cc(S(=O)(=O)N(C)C2CC2)ccc1-c1cnc(N)c(-c2ccc3c(c2)CCNC3=O)c1` [Compound I-48, 4-(6-amino-5-(1-oxo-1,2,3,4-tetrahydroisoquinolin-6-yl)pyridin-3-yl)-N-cyclopropyl-3-isopropoxy-N-methylbenzenesulfonamide] displayed an IC50 below 0.04 µM.

`Nc1ncc(-c2cccc(S(N)(=O)=O)c2)cc1-c1ccc2c(c1)CCNC2=O` [Compound I-71, 3-(6-amino-5-(1-oxo-1,2,3,4-tetrahydroisoquinolin-6-yl)pyridin-3-yl)benzenesulfonamide] had an IC50 of 0.2 to 0.9 µM.

`Nc1ncc(-c2ccc(F)c3ncsc23)cc1-c1ccc2c(c1)CCNC2=O` [Compound I-57, 6-(2-amino-5-(4-fluorobenzo[d]thiazol-7-yl)pyridin-3-yl)-3,4-dihydroisoquinolin-1(2H)-one] had an IC50 below 0.04 µM.

In the case of `Cc1cc(N2CCOCC2)cc2[nH]c(-c3c(NC[C@@H](O)c4cccc(Cl)c4)cc[nH]c3=O)nc12` [BMS536924, reference compound], the IC50 was 0.04 to 0.2 µM.

In turn, `Nc1ncc(-c2cccc(-c3nccs3)c2)cc1-c1ccc2c(c1)CCNC2=O` [Compound I-59, 6-(2-amino-5-(3-(thiazol-2-yl)phenyl)pyridin-3-yl)-3,4-dihydroisoquinolin-1(2H)-one] came in with an IC50 below 0.04 µM.

For `Nc1ncc(-c2cc(F)ccc2[N+](=O)[O-])cc1-c1ccc2c(c1)CCNC2=O` [Compound I-7, 6-(2-amino-5-(5-fluoro-2-nitrophenyl)pyridin-3-yl)-3,4-dihydroisoquinolin-1(2H)-one], the 50% inhibitory concentration (IC50) was above 0.9 µM.

`COc1ccncc1-c1cnc(N)c(-c2ccc3c(c2)CCNC3=O)c1` [Compound I-8, 6-(6-amino-4′-methoxy-[3,3′-bipyridin]-5-yl)-3,4-dihydroisoquinolin-1(2H)-one] had an IC50 above 0.9 µM.

Compound `Nc1ncc(-c2cccc(NS(=O)(=O)C3CC3)c2)cc1-c1ccc2c(c1)CCNC2=O` [Compound I-58, N-(3-(6-amino-5-(1-oxo-1,2,3,4-tetrahydroisoquinolin-6-yl)pyridin-3-yl)phenyl) cyclopropanesulfonamide] gave an IC50 below 0.04 µM.

Turning to `CN(C1CC1)S(=O)(=O)c1ccc(-c2cnc(N)c(-c3ccc4c(=O)[nH]cnc4c3)c2)c(F)c1` [Compound I-63, 4-(6-amino-5-(4-oxo-3,4-dihydroquinazolin-7-yl)pyridin-3-yl)-N-cyclopropyl-3-fluoro-N-methylbenzenesulfonamide], the IC50 is below 0.04 µM.

As to `N#Cc1cc(-c2cc(-c3cc([N+](=O)[O-])ccc3F)cnc2N)ccc1O` [Compound I-11, 5-(2-amino-5-(2-fluoro-5-nitrophenyl)pyridin-3-yl)-2-hydroxybenzonitrile], the IC50 was above 0.9 µM.

Turning to `COc1cc(S(=O)(=O)N(C)C2CCCCC2)ccc1-c1cnc(N)c(-c2ccc3c(c2)CCNC3=O)c1` [Compound I-52, 4-(6-amino-5-(1-oxo-1,2,3,4-tetrahydroisoquinolin-6-yl)pyridin-3-yl)-N-cyclohexyl-3-methoxy-N-methylbenzenesulfonamide], the IC50 lay in the range of 0.04 to 0.2 µM.

In the case of `Nc1ncc(-c2cccc3scnc23)cc1-c1ccc2c(c1)CCNC2=O` [Compound I-55, 6-(2-amino-5-(benzo[d]thiazol-4-yl)pyridin-3-yl)-3,4-dihydroisoquinolin-1(2H)-one], the half-maximal inhibitory concentration (IC50) lay in the range of 0.04 to 0.2 µM.

As to `Nc1ncc(-c2ccc([N+](=O)[O-])cc2F)cc1-c1ccc2c(c1)CCNC2=O` [Compound I-54, 6-(2-amino-5-(2-fluoro-4-nitrophenyl)pyridin-3-yl)-3,4-dihydroisoquinolin-1(2H)-one], the IC50 lay within 0.04 to 0.2 µM.

Compound `Nc1ncc(-c2scnc2Cl)cc1-c1ccc2c(c1)CCNC2=O` [Compound I-77, 6-(2-amino-5-(4-chlorothiazol-5-yl)pyridin-3-yl)-3,4-dihydroisoquinolin-1(2H)-one] came in with an IC50 of 0.04 to 0.2 µM.

As to `CCOc1cc(S(=O)(=O)N(C)C2CC2)ccc1-c1cnc(N)c(-c2ccc3c(c2)CCNC3=O)c1` [Compound I-47, 4-(6-amino-5-(1-oxo-1,2,3,4-tetrahydroisoquinolin-6-yl)pyridin-3-yl)-N-cyclopropyl-3-ethoxy-N-methylbenzenesulfonamide], the IC50 was below 0.04 µM.

In the case of `CC(C)Oc1cc(S(=O)(=O)N(C)C2CC2)ccc1-c1cnc(N)c(-c2ccc3c(c2)CNC3=O)c1` [Compound I-68, 4-(6-amino-5-(1-oxoisoindolin-5-yl)pyridin-3-yl)-N-cyclopropyl-3-isopropoxy-N-methylbenzenesulfonamide], the IC50 is below 0.04 µM.

Turning to `Nc1ncc(-c2ccc(NS(=O)(=O)C3CC3)cc2OC2CCCC2)cc1-c1ccc2c(c1)CCNC2=O` [Compound I-69, N-(4-(6-amino-5-(1-oxo-1,2,3,4-tetrahydroisoquinolin-6-yl)pyridin-3-yl)-3-(cyclopentyloxy)phenyl) cyclopropanesulfonamide], the IC50 is below 0.04 µM.

In the case of `Nc1ncc(-c2cncc3ncsc23)cc1-c1ccc2c(c1)CCNC2=O` [Compound I-56, 6-(2-amino-5-(thiazolo[4,5-c]pyridin-7-yl)pyridin-3-yl)-3,4-dihydroisoquinolin-1(2H)-one], the IC50 is 0.2 to 0.9 µM.

For `NC(=O)c1ccc(-c2cc(-c3cc([N+](=O)[O-])ccc3F)cnc2N)cc1Cl` [Compound I-30, 4-(2-amino-5-(2-fluoro-5-nitrophenyl)pyridin-3-yl)-2-chlorobenzamide], the IC50 was 0.2 to 0.9 µM.

Turning to `CN1CCc2cc(-c3cc(-c4ccc(S(=O)(=O)N(C)C5CC5)cc4F)cnc3N)ccc2C1=O` [Compound I-62, 4-(6-amino-5-(2-methyl-1-oxo-1,2,3,4-tetrahydroisoquinolin-6-yl)pyridin-3-yl)-N-cyclopropyl-3-fluoro-N-methylbenzenesulfonamide], the IC50 is below 0.04 µM.

Consider `Nc1ncc(-c2ccc(F)c3ncsc23)cc1-c1ccc2c(c1)CNC2=O` [Compound I-70, 5-(2-amino-5-(4-fluorobenzo[d]thiazol-7-yl)pyridin-3-yI)isoindolin-1-one], for which the 50% inhibitory concentration (IC50) lay in the range of 0.04 to 0.2 µM.

The compound `Nc1ncc(-c2ccc(NS(=O)(=O)C3CC3)cc2OCc2ccccc2)cc1-c1ccc2c(c1)CCNC2=O` [Compound I-66, N-(4-(6-amino-5-(1-oxo-1,2,3,4-tetrahydroisoquinolin-6-yl)pyridin-3-yl)-3-(benzyloxy)phenyl) cyclopropanesulfonamide] registered an IC50 of 0.04 to 0.2 µM.

On to `Nc1ncc(-c2ccc3ncsc3c2)cc1-c1ccc2c(c1)CCNC2=O` [Compound I-44, 6-(2-amino-5-(benzo[d]thiazol-6-yl)pyridin-3-yl)-3,4-dihydroisoquinolin-1(2H)-one], for which the IC50 fell in the range of 0.04 to 0.2 µM.

Turning to `Nc1ncc(-c2cc([N+](=O)[O-])cc(F)c2F)cc1-c1ccc2c(c1)CCNC2=O` [Compound I-18, 6-(2-amino-5-(2,3-difluoro-5-nitrophenyl)pyridin-3-yl)-3,4-dihydroisoquinolin-1(2H)-one], the IC50 was 0.04 to 0.2 µM.

As to `COc1cc(S(=O)(=O)NC2CC2)ccc1-c1cnc(N)c(-c2ccc3c(c2)CCNC3=O)c1` [Compound I-49, 4-(6-amino-5-(1-oxo-1,2,3,4-tetrahydroisoquinolin-6-yl)pyridin-3-yl)-N-cyclopropyl-3-methoxybenzenesulfonamide], the IC50 is below 0.04 µM.

The compound `COc1cc(-c2nccs2)ccc1-c1cnc(N)c(-c2ccc3c(c2)CCNC3=O)c1` [Compound I-60, 6-(2-amino-5-(2-methoxy-4-(thiazol-2-yl)phenyl)pyridin-3-yl)-3,4-dihydroisoquinolin-1(2H)-one] showed an IC50 of 0.04 to 0.2 µM.

Turning to `NC(=O)c1ccc(-c2cc(-c3cc([N+](=O)[O-])ccc3F)cnc2N)cc1` [Compound I-31, 4-(2-amino-5-(2-fluoro-5-nitrophenyl)pyridin-3-yl)benzamide], the IC50 was 0.2 to 0.9 µM.

As for `Nc1ncc(-c2cccc3ncsc23)cc1-c1ccc2c(=O)[nH]cnc2c1` [Compound I-64, 7-(2-amino-5-(benzo[d]thiazol-7-yl)pyridin-3-yl)quinazolin-4(3H)-one], the IC50 was 0.04 to 0.2 µM.

Turning to `COc1cc(C#N)ccc1-c1cnc(N)c(-c2ccc3c(c2)CCNC3=O)c1` [Compound I-61, 4-(6-amino-5-(1-oxo-1,2,3,4-tetrahydroisoquinolin-6-yl)pyridin-3-yl)-3-methoxybenzonitrile], the IC50 was below 0.04 µM.

Usually IC50 stands for the concentration that gives 50% inhibition. A higher IC50 goes with lower potency.
